Literature values, collected in US20030069214A1, “Process for preparing saponin compounds” (priority 2001, published 2003).

Legend:
[1] = system: broad spectrum of malignant tumor cells; settings: Bioorg. Med. Chem. Lett., 7, 633, 1997
normal cells = normal cells in vitro; Bioorg. Med. Chem. Lett., 7, 633, 1997

For `COc1ccc(C(=O)O[C@H]2[C@H](O[C@@H]3[C@@H](OC(C)=O)[C@H](O[C@H]4C[C@H]5[C@@H]6CC=C7C[C@@H](O)CC[C@]7(C)[C@H]6CC[C@]5(C)[C@@]4(O)[C@H](C)C(=O)CCC(C)C)OC[C@@H]3O)OC[C@@H](O)[C@@H]2O)cc1` [OSW-1], the “toxicity against malignant tumor cells” value [1] is given as “highly toxic” and the “toxicity to normal cells” value (normal cells) is given as “little toxicity”.
